For this assay, the target named is T1, MDM2 protein (Homo sapiens, UniProt Q00987).
T1 construct: endogenous in cells; host or cells: HCT116
Nature of the assay: Western blot of endogenous MDM2 protein degradation (knockdown) in HCT116 cells. Type of assay: cell-based. To be noted: 48 hours after addition, vs DMSO control. The protocol: In Example 2, degradation (knockdown) of an endogenous wild-type p53 protein and MDM2 protein in HCT116 cells (human large intestinal cancer cells) to which TIBC-CANDDY_MLN had been added was evaluated by Western blot analysis.
HCT116 cells were seeded in a 24-well plate at a cell density of 8×10^4 cells/well, and then cultured under conditions of 37° C. and 5 vol % CO2 for 16 hours.
After 16 hours from cell seeding, TIBC-CANDDY_MLN or TIBC was added to HCT116 cells as follows. As a medium, a serum-free medium (37° C.) in which 1 mass % L-glutamine solution (Sigma-Aldrich) was added to D-MEM (high D-glucose, phenol red, sodium pyruvate (Wako Pure Chemical Industries, Ltd.)) was used. It is noted that the L-glutamine solution was added immediately before use. […]
After electrophoresis, proteins were transferred to a PVDF membrane (Immobion™-P, Millipore) under conditions of 100 V and 2 hours using a tank-type blotting device and a transfer buffer (25 mM Tris-HCl, 195 mM glycine, 0.01% SDS, 15% methanol). […] Subsequently, the membrane was treated with a chemiluminescence reagent Immobilon™ Western (Millipore), and then chemiluminescence was detected using a lumino image analyzer LAS-3000 (FUJIFILM Corporation).
A general note: In western blotting, separated proteins are transferred to a membrane and probed.

Experimental findings from US11007269B2, “P53 degradation inducing molecule and pharmaceutical composition” (Tokyo University of Science Foundation, priority 2016, dated 2021) are described below.

T1 sequence (Q00987 whole entry): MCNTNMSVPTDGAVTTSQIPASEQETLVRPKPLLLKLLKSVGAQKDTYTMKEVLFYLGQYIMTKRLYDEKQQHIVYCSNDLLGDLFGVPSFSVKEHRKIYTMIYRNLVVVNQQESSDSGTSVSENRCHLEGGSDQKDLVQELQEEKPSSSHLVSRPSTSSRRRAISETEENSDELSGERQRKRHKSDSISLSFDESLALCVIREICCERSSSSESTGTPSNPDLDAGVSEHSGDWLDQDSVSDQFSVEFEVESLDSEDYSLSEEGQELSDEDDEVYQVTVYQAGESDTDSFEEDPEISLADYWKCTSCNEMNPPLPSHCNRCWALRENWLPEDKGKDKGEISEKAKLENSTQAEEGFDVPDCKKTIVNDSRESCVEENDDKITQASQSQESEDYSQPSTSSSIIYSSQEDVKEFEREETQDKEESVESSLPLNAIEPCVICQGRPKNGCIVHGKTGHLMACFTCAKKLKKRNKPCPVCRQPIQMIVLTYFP

For the compound `CC(C)C[C@H](NC(=O)CNC(=O)c1cc(Cl)ccc1Cl)C(=O)NCCCCCCC(=O)Nc1ccc(C(=O)/C=C/c2ccc(I)cc2)cc1` [TIBC-CANDDY_MLN], the “amount of the endogenous MDM2 protein (Western blot)” value was “reduced”.
